This is an account of results in patent publication US12492197B2, “3,5-disubstituted pyrazole compounds as kinase inhibitors and uses thereof” (IMPACT THERAPEUTICS (SHANGHAI), INC, priority 2019, dated 2025).

Assay [1] deals with human breast cancer cell HCC1806. Nature of the assay: Proliferation of HCC1806 cells, MTT assay. The class given is cell-based. The note with it: HCC1806, 72 h, 3 days treatment, read-out: IC50 (inhibition of proliferation of HCC1806). For orientation: Tetrazolium dyes change colour on reduction, which living cells bring about.
The subject of assay [2] is human pancreatic cancer cell SW1990. Nature of the assay: Proliferation of SW1990 cells, MTT assay. The class given is cell-based. The note with it: SW1990, 120 h, 5 days treatment, read-out: IC50 (inhibition of proliferation of SW1990). Here is the method: Newly revived SW1990 cells (purchased from Shanghai Fuheng Biology) were cultured and passaged for at least three generations before use. Cells were used at about 90% confluency for experiments. Cells were digested with trypsinase and centrifuged at 800 rpm for 5 minutes. The cell pellets were resuspended in fresh DMEM medium and cells were counted. Cells were seeded on 96-well cell culture plates at 5000 cells/well and incubated overnight at 37° C., 5% CO2. The stock solutions of the test substances (including the test compounds and the reference compound) were serially diluted to 8 concentrations with DMSO at a ratio of 1:3. 5 μL of each serially diluted solutions was added to 120 μL of medium (diluted by 25 times) and mixed by shaking. […] The cell culture plates were returned to incubator at 37° C. and 5% CO2 for 5 days. At the end of the treatment the cell viability was determined by MTT colorimetric assay. Cell culture medium in each well was replaced by 100 μL/well of serum-free fresh medium containing MTT (0.5 mg/mL), and the culture was continued for additional 4 hours. Medium was then discarded and 100 μL/well of DMSO was added.
Data was analyzed by GraphPad Prism 6.0. The inhibitory effects of compounds on cell proliferation were plotted based on cell viability vs. the logarithm of compound concentration. Cell viability %=(ODcompound−ODbackground)/(ODDMSO−ODbackground)×100.

The target in assay [3] is T1, CHK1 kinase (Homo sapiens, UniProt O14757).
T1 construct: purchased Promega V1941
T1 sequence (O14757 1-476): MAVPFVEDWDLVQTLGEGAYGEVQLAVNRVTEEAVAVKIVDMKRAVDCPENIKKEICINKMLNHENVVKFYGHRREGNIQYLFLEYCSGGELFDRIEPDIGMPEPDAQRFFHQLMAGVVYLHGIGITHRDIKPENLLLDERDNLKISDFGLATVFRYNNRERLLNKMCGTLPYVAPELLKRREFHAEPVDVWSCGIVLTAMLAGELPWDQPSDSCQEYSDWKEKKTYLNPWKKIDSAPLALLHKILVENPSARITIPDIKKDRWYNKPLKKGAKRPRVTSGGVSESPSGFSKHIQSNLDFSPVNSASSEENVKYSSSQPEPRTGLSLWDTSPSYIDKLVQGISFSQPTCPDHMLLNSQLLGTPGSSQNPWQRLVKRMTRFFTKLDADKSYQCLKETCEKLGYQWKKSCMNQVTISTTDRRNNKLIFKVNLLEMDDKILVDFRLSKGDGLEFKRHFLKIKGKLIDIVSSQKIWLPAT
Nature of the assay: CHK1 kinase inhibition, ADP-Glo kinase assay. The class given is biochemical. The note with it: ATP 10 μM, CHK1 1 ng/well; for inhibition at 0.01 µM: compound concentration 10 nM, read-out: Inh % (inhibitory effect on CHK1 kinase activity); for IC50: read-out: IC50 (inhibitory effect on CHK1 kinase activity). The protocol: 2 μL of kinase CHK1 (#V1941, Promega), 1 μL of compound diluted with buffer, and 2 μL of ATP substrate was successively added to a 384-well plate (final concentration of CHK1 was 1 ng/well, ATP was 10 μM). The positive control wells contained CHK1, ATP and DMSO whereas the negative control wells contained ATP, DMSO without enzyme. The mixtures were centrifuged at 1000 rpm for 1 minute and kept in darkness at room temperature for 1 hour to react. Then, 5 μL of ADP-Glo reagent was added to each well and incubated at room temperature for 40 minutes. At the end of incubation, 10 μL of kinase detection reagent was added to each well, and the relative chemiluminescence values (RLU) were measured on Varioskan® Flash (Thermo). The following calculation was performed: Inhibition rate %=(RLU of positive control−RLU of compound)/(RLU of positive control−RLU of negative control)×100. Data were analyzed using GraphPad Prism6.0 and fitted using the curve equation: Y=Bottom+(Top-Bottom)/(1+10^((Log IC50−X)*HillSlope)), and IC50 values were calculated.

Assay [4] has as its system human colon cancer cell LoVo. The experiment in a line: Proliferation of LoVo cells, MTT assay. It is filed as cell-based. The note with it: 96 h, 4 days treatment, read-out: IC50 (inhibition of proliferation of LoVo).

Bounds are passed on as bounds.

In the case of `COc1cccc(OC[C@@H]2CNCCO2)c1-c1cc(Nc2ccc(C#N)nc2)n[nH]1` [Example 2, (S)-5-((5-(2-methoxy-6-(morpholin-2-ylmethoxy)phenyl)-1H-pyrazol-3-yl)amino)picolinonitrile], the results for the IC50 in assay [1] and in assay [2] were 0.153 µM and 0.0849 µM, respectively. In addition, the inhibition at 0.01 µM in assay [3] stood at 85%.
For `COc1cccc(OC[C@@H]2CN(C)CCO2)c1-c1cc(Nc2cnc(C#N)cn2)n[nH]1` [Example 4, (S)-5-((5-(2-methoxy-6-((4-methylmorpholin-2-yl)methoxy)phenyl)-1H-pyrazol-3-yl)amino)pyrazine-2-carbonitrile] the same measures were 0.139 µM, 0.123 µM and 82%.
For `COc1cccc(OC[C@@H]2CNCCO2)c1-c1cc(Nc2cnc(C(F)(F)F)cn2)n[nH]1` [Example 5, (S)—N-(5-(2-methoxy-6-(morpholin-2-ylmethoxy)phenyl)-1H-pyrazol-3-yl)-5-(trifluoromethyl)pyrazin-2-amine], the IC50 came to 0.394 µM in assay [1] and 0.287 µM in assay [2]. Further, the inhibition at 0.01 µM in assay [3] amounted to 50%.
For the molecule `COc1cc(Cl)cc(OC[C@@H]2CNCCO2)c1-c1cc(Nc2cnc(C#N)cn2)n[nH]1` [Example 16, (S)-5-((5-(4-chloro-2-methoxy-6-(morpholin-2-ylmethoxy)phenyl)-1H-pyrazol-3-yl)amino)pyrazine-2-carbonitrile], the IC50 in assay [1] and in assay [2] was 0.0118 µM each time. Besides, the inhibition at 0.01 µM in assay [3] was found to be 93%.
On to `COc1cccc(OC[C@H]2CNCCO2)c1-c1cc(Nc2cnc(C#N)cn2)n[nH]1` [Example 3, (R)-5-((5-(2-methoxy-6-(morpholin-2-ylmethoxy)phenyl)-1H-pyrazol-3-yl)amino)pyrazine-2-carbonitrile], for which the figures for the IC50 in assay [1] and in assay [2] were 0.0942 µM and 0.0507 µM, respectively. Also, the inhibition at 0.01 µM in assay [3] was 79%.
In the case of `COc1cc(Br)cc(OC[C@@H]2CNCCO2)c1-c1cc(Nc2cnc(C#N)cn2)n[nH]1` [Example 18, (S)-5-((5-(4-bromo-2-methoxy-6-(morpholin-2-ylmethoxy)phenyl)-1H-pyrazol-3-yl)amino)pyrazine-2-carbonitrile], the figures for the IC50 in assay [1] and in assay [2] were 0.0392 µM and 0.0196 µM, respectively. For the same molecule, the inhibition at 0.01 µM in assay [3] was 79%.
For `COc1ccc(Cl)c(OC[C@@H]2CNCCO2)c1-c1cc(Nc2cnc(C#N)cn2)n[nH]1` [Example 17, (S)-5-((5-(3-chloro-6-methoxy-2-(morpholin-2-ylmethoxy)phenyl)-1H-pyrazol-3-yl)amino)pyrazine-2-carbonitrile] the same measures were 0.895 µM, 0.615 µM and 50%.
`COc1c(Cl)ccc(OC[C@@H]2CNCCO2)c1-c1cc(Nc2cnc(C#N)cn2)n[nH]1` [Example 15, (S)-5-((5-(3-chloro-2-methoxy-6-(morpholin-2-ylmethoxy)phenyl)-1H-pyrazol-3-yl)amino)pyrazine-2-carbonitrile]: the IC50 was greater than 1 µM in assay [1] and 0.809 µM in assay [2]. Also, the inhibition at 0.01 µM in assay [3] was 40%.
In the case of `COc1cccc(OCC2CCNCC2)c1-c1cc(Nc2cnc(C#N)cn2)n[nH]1` [Example 12, 5-((5-(2-methoxy-6-(piperidin-4-ylmethoxy)phenyl)-1H-pyrazol-3-yl)amino)pyrazine-2-carbonitrile], the figures for the IC50 in assay [1], in assay [2] and in assay [3] were 0.0139 µM, 0.0101 µM and 0.00072 µM, respectively.
As for `COc1cccc(OC2CCNCC2)c1-c1cc(Nc2cnc(C#N)cn2)n[nH]1` [Example 30, 5-((5-(2-methoxy-6-(piperidin-4-yloxy)phenyl)-1H-pyrazol-3-yl)amino)pyrazine-2-carbonitrile], the results for the IC50 in assay [1] and in assay [2] were 0.0317 µM and 0.0191 µM, respectively. The inhibition at 0.01 µM in assay [3] is 89%.
Take `N#Cc1cnc(Nc2cc(-c3c(F)cccc3OC[C@@H]3CNCCO3)[nH]n2)cn1` [Example 55, (S)-5-((5-(2-fluoro-6-(morpholin-2-ylmethoxy)phenyl)-1H-pyrazol-3-yl)amino)pyrazine-2-carbonitrile]: the IC50 in assay [1] turned out to be 0.315 µM; in assay [4] it was 0.153 µM. Besides, the inhibition at 0.01 µM in assay [3] was determined as 82%.
As to `N#Cc1cnc(Nc2cc(-c3c(F)cc(Cl)cc3OC[C@H]3CCCNC3)[nH]n2)cn1` [Example 57, (S)-5-((5-(4-chloro-2-fluoro-6-(piperidin-3-ylmethoxy)phenyl)-1H-pyrazol-3-yl)amino)pyrazine-2-carbonitrile], the results for the IC50 in assay [1] and in assay [4] were 0.17 µM and 0.105 µM, respectively. For the same molecule, the inhibition at 0.01 µM in assay [3] amounted to 92%.
For `COc1c(C)ccc(OC[C@H]2CCCNC2)c1-c1cc(Nc2cnc(C#N)cn2)n[nH]1` [Example 42, (S)-5-((5-(2-methoxy-3-methyl-6-(piperidin-3-ylmethoxy)phenyl)-1H-pyrazol-3-yl)amino)pyrazine-2-carbonitrile] the same measures were 0.0692 µM, 0.0666 µM and 85%.
As for `COc1cccc(OC[C@H]2COCCN2)c1-c1cc(Nc2cnc(C#N)cn2)n[nH]1` [Example 7, (R)-5-((5-(2-methoxy-6-(morpholin-3-ylmethoxy)phenyl)-1H-pyrazol-3-yl)amino)pyrazine-2-carbonitrile], the IC50 in assay [1] was determined as 0.0376 µM; in assay [4], 0.0301 µM. Moreover, the inhibition at 0.01 µM in assay [3] is 95%.
In the case of `COc1cccc(OC[C@@H]2CNCCN2C)c1-c1cc(Nc2cnc(C#N)cn2)n[nH]1` [Example 11, (S)-5-((5-(2-methoxy-6-((1-methylpiperazin-2-yl)methoxy)phenyl)-1H-pyrazol-3-yl)amino)pyrazine-2-carbonitrile], the IC50 in assay [1] and in assay [4] was greater than 1 µM each time. The inhibition at 0.01 µM in assay [3] was found to be 4.9%.
Turning to `COc1cccc(OC[C@@H]2CNCCO2)c1-c1cc(Nc2cnc(C)cn2)n[nH]1` [Example 6, (S)—N-(5-(2-methoxy-6-(morpholin-2-ylmethoxy)phenyl)-1H-pyrazol-3-yl)-5-methylpyrazin-2-amine], the figures for the IC50 in assay [1] and in assay [4] were 0.187 µM and 0.192 µM, respectively. The inhibition at 0.01 µM in assay [3] came out at 85%.
For `COc1cccc(OC[C@H]2CCCNC2)c1-c1cc(Nc2ccc(C#N)cn2)n[nH]1` [Example 24, (S)-6-((5-(2-methoxy-6-(piperidin-3-ylmethoxy)phenyl)-1H-pyrazol-3-yl)amino)nicotinonitrile] the same measures were 0.0692 µM, 0.0708 µM and 89%.
For `COc1cccc(OC[C@H]2CCCOC2)c1-c1cc(Nc2cnc(C#N)cn2)n[nH]1` [Example 34, (S)-5-((5-(2-methoxy-6-((tetrahydro-2H-pyran-3-yl)methoxy)phenyl)-1H-pyrazol-3-yl)amino)pyrazine-2-carbonitrile] the same measures were 0.102 µM, 0.0649 µM and 69%.
As to `COc1cc(Br)cc(OC[C@H]2CCNC2)c1-c1cc(Nc2cnc(C#N)cn2)n[nH]1` [Example 70, (S)-5-((5-(4-bromo-2-methoxy-6-(pyrrolidin-3-ylmethoxy)phenyl)-1H-pyrazol-3-yl)amino)pyrazine-2-carbonitrile], the values for the IC50 in assay [1], in assay [4] and in assay [3] were 0.0049 µM, 0.0036 µM and 0.00116 µM, respectively.
